#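 Results reflect a 48-hour exposure of cells in 96-well plates to compound at five concentrations. GI50 = concentration required for 50% inhibition of growth. TGI: concentration producing complete growth inhibition.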
# Tests used:
# Assay in all cases: NCI tumour cell line growth inhibition, 48 h
# BT-549 breast = test system: BT-549 breast
# MDA-N = test system: MDA-N
# HOP-18 NSCLC = test system: HOP-18 NSCLC
# RXF-631 renal = test system: RXF-631 renal
# LXFL 529 NSCLC = test system: LXFL 529 NSCLC
# DMS 114 small cell lung = test system: DMS 114 small cell lung
# M19-MEL melanoma = test system: M19-MEL melanoma
# DMS 273 small cell lung = test system: DMS 273 small cell lung
# KM20L2 colon = test system: KM20L2 colon
Structure (SMILES),GI50 (BT-549 breast) [µM],TGI (BT-549 breast) [µM],TGI (HOP-18 NSCLC) [µM],TGI (LXFL 529 NSCLC) [µM],TGI (DMS 114 small cell lung) [µM],TGI (M19-MEL melanoma) [µM],TGI (DMS 273 small cell lung) [µM],TGI (KM20L2 colon) [µM],other results
Cc1cc(Cl)ccc1Nc1nc(C(F)(F)F)ccc1C(=O)N/N=C/c1ccc(N(C)C)cc1,0.624,6.78,,,,,,,
C#CCOc1cccc(Nc2ncnc3c2ncn3C2CCN(C(=O)CCl)C2)c1 (configuration not stated),12.1,26.6,,,,,,,
C=C(C)C1CCC2(CO)C(O)CC3(C)C(CCC4C5(C)CCC(O)C(C)(C)C5CCC43C)C12 (configuration not stated),,> 100,,,,,,,TGI (MDA-N): > 100 µM
CC(=O)NNc1nc(C)c(C(/C=C/c2ccc(Cl)cc2)=N/NC(=S)NN)s1,,,> 100,> 100,> 100,> 100,> 100,> 100,TGI (RXF-631 renal): > 100 µM
CCc1ccccc1NC(=O)C1=C(C)NC(C)=C(C(=O)Nc2ccccc2CC)C1c1ccc(NC(C)=O)cc1,,,,87.2,> 100,> 100,,58.8,
CCCCCC/C=C\CCCCCCCCCc1c(O)c(OC)cc(O)c1CN(C)C,,21,,,,,,,TGI (MDA-N): 32.2 µM
O/N=C1/C(=C/c2ccccc2)CCCC1C(NO)c1ccccc1 (configuration not stated),,,> 100,> 100,> 100,> 100,> 100,> 100,TGI (RXF-631 renal): > 100 µM
Cc1ccc2oc(=O)cc(C3c4ccc([nH]4)C(c4cc(=O)oc5ccc(C)cc45)c4ccc([nH]4)C(c4cc(=O)oc5ccc(C)cc45)c4ccc([nH]4)C(c4cc(=O)oc5ccc(C)cc45)c4ccc3[nH]4)c2c1 (configuration not stated),0.0299,0.183,,,,,,,
COC(=O)NN=C1C(C)(C)C(=NNC(=O)OC)C1(C)C,,,> 100,> 100,> 56.7,> 63.3,> 100,> 100,TGI (RXF-631 renal): > 100 µM
c1cc(C2N3CCCN2CC3)ccn1 (configuration not stated),,> 100,,,,,,,TGI (MDA-N): > 100 µM
CN(C)CCN1C(=O)c2cccc3c(-c4ccc5ncn(C6CCCCC6)c5c4)ccc(c23)C1=O,3.95,16.2,,,,,,,
OCCCCC#Cc1ccccc1C#Cc1cccs1,12.4,25.4,,,,,,,
C=C(C)C(=O)N1c2ccc(OC)cc2CC1C(=O)OCC (configuration not stated),,> 100,,,,,,,TGI (MDA-N): > 100 µM
COC(=O)C(C(=O)C(=O)Nc1ccc(C)cc1C)c1nc2ccc([N+](=O)[O-])cc2[nH]c1=O (configuration not stated),,,> 100,> 100,> 100,> 100,> 100,> 100,TGI (RXF-631 renal): > 100 µM
CC(=O)Oc1cc(OC(C)=O)c2cc3c(cc2c1OC(C)=O)C(=O)C1(CCCC1)C3=O,,,38.5,,31.6,32,35.8,46.3,
CC(C)(C)n1cc(-c2ccnc(NCCCNS(=O)(=O)c3ccc(Cl)cc3)c2)c(-c2cccc(O)c2)n1,1.67,3.16,,,,,,,
COc1cc2c(cc1-c1c(C)noc1C)ncc1[nH]c(=O)n([C@H](C)c3ccccn3)c12,13.1,> 100,,,,,,,
NC(=O)N/N=C1/CCCC/C1=C\c1ccccc1,,,> 100,> 100,> 100,> 100,> 100,> 100,TGI (RXF-631 renal): > 100 µM

Structure (SMILES),GI50 (BT-549 breast) [µM],TGI (BT-549 breast) [µM],TGI (HOP-18 NSCLC) [µM],TGI (LXFL 529 NSCLC) [µM],TGI (DMS 114 small cell lung) [µM],TGI (M19-MEL melanoma) [µM],TGI (DMS 273 small cell lung) [µM],TGI (KM20L2 colon) [µM],other results
CCOC(CN(C)C(=O)OCC(Cl)(Cl)Cl)OCC,,> 100,,,,,,,TGI (MDA-N): > 100 µM
COC(=O)C1=C2CO[C@@H]3C[C@H]4C(C)(C)CCC[C@]4(C)C(=CC1)[C@]23C,48.9,> 100,,,,,,,
ClC1=C(Cl)C(Cl)=C(Cl)C1=Cc1ccc(Cl)cc1Cl,0.277,0.809,,,,,,,
c1cc(-c2cnn3nc(N4CCOCC4)ccc23)nc(NC2CC2)n1,8.15,> 25,,,,,,,
Cc1cc(S(=O)(=O)Nc2nc3ccsc3c(=O)n2Cc2ccccc2)c(S)cc1Cl,28,89.8,,,,,,,
CCCCCCCCCCCCCCCCCCOCC1(COP(=O)([O-])OCC[N+](C)(C)C)CCCO1 (configuration not stated),,,10.9,16.6,18.1,10.8,3.13,11.9,
O=C(Nc1ccc([N+](=O)[O-])cc1)c1cc2ccccc2cc1O,0.444,2.43,,,,,,,
CC(C)(C)[Si](Nc1ccccc1)(c1ccccc1)c1ccccc1,,,26.7,,26.3,28.4,27.3,31.7,TGI (RXF-631 renal): 29.6 µM
COc1cc(CCC(=O)NS(=O)(=O)c2ccccc2)cc(OC)c1OC,,,> 100,> 100,> 100,,> 100,> 100,
NC(=O)C12CCC1C1CCCCC12N1CCOCC1 (configuration not stated),,,> 100,> 100,,> 100,,> 100,TGI (RXF-631 renal): > 100 µM
CC(=O)[CH-]C(=O)c1ccccc1.CC(=O)[CH-]C(=O)c1ccccc1.CC[O-].O=C1C=C([O-])C(=O)c2ccccc21.[Ti+4],,,> 100,> 100,,,> 100,> 100,GI50 (HOP-18 NSCLC): 95.4 µM; GI50 (LXFL 529 NSCLC): 48.8 µM; GI50 (DMS 273 small cell lung): 96.4 µM; GI50 (KM20L2 colon): 42.4 µM
CSc1ccc(C(=O)/C=C/c2ccc(F)cc2)cc1,40,> 100,,,,,,,
Cc1cccc2cc3ccc4ccccc4c3cc12,,> 100,,,,,,,TGI (MDA-N): > 100 µM
CO[C@H]1/C=C/C[C@H](C)[C@@H](C)S(=O)(=O)NC(=O)c2ccc3c(c2)N(C[C@@H]2CC[C@H]21)C[C@@]1(CCCc2cc(Cl)ccc21)CO3,2.23,6.99,,,,,,,
O=C1/C(=C/c2ccc(C(F)(F)F)cc2)COc2ccc(O)cc21,4.29,15.5,,,,,,,
COc1cc(C(=C2SCCS2)c2nccc3cc(OC)c(OC)cc23)c([N+](=O)[O-])cc1OC,,,> 100,> 100,> 100,> 100,> 100,> 100,
CN(C)NC(=S)NC12CC3CC(CC(C3)C1)C2,,,> 100,> 100,> 100,> 100,> 100,> 100,
C/C(CC(=O)Nc1ccc(NC(=O)/C(C)=N/NS(=O)(=O)c2ccc(C)cc2)cc1)=N\NS(=O)(=O)c1ccc(C)cc1,,,,> 100,> 100,> 100,,> 100,

# — PubChem BioAssay (NCI)
